In patent US20230123334A1, “AMINO LIPID COMPOUND, PREPARATION METHOD THEREFOR, AND APPLICATION THEREOF” (SHENZHEN SHENXIN BIOTECHNOLOGY CO., LTD., priority 2020, published 2023):

system: HEK293 cells; test: Preliminary screening as DNA vectors, GFP transfection of HEK293 cells; type: cell-based; details: amino lipid/DOPE liposome with 75 ng plasmid DNA (psin-EGFP-IRES-Puro); number of GFP-expressing cells divided by total nuclei (Hoechst)
Procedure, shortened: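 HEK293 cells in DMEM/10% FBS transfected with 75 ng EGFP plasmid per well complexed with amino lipid/DOPE liposomes in pH 5.6 sodium acetate. Hoechst nuclear stain added 20-24 h post-transfection, then cells cultured another 20-24 h. Confocal imaging gives GFP-positive cells as % of total nuclei.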

Row | Compound | Absolute DNA transfection efficiency in HEK293 cells [%]
1 | CCCCCCCSc1nc(NCCN2CCCC2)nc(SCCCCCCC)n1 [S7S7 D3] | 9.2
2 | CCCCCCCSc1nc(NCCN2CCCCC2)nc(SCCCCCCC)n1 [S7S7 D4] | 0.0
3 | CCCCCCCSc1nc(NCCN2CCN(C)CC2)nc(SCCCCCCC)n1 [S7S7 D5] | 4.8
4 | CCCCCCCSc1nc(NCCCN(C)C)nc(SCCCCCCC)n1 [S7S7 D6] | 10.3
5 | CCCCCCCSc1nc(NCCN(CC)CC)nc(SCCCCCCC)n1 [S7S7 D7] | 9.3
6 | CCCCCCCSc1nc(NCCCN2CCOCC2)nc(SCCCCCCC)n1 [S7S7 D8] | 0.6
7 | CCCCCCCSc1nc(NCCCN2CCN(C)CC2)nc(SCCCCCCC)n1 [S7S7 D9] | 7.9
8 | CCCCCCCSc1nc(NCC2CCN(C)CC2)nc(SCCCCCCC)n1 [S7S7 D10] | 5.5
9 | CCCCCCCCSc1nc(NCCN(C)C)nc(SCCCCCCC)n1 [S7S8 D1] | 6.7
10 | CCCCCCCCSc1nc(NCCN2CCOCC2)nc(SCCCCCCC)n1 [S7S8 D2] | 0.0
11 | CCCCCCCCSc1nc(NCCN2CCCC2)nc(SCCCCCCC)n1 [S7S8 D3] | 9.2
12 | CCCCCCCCSc1nc(NCCN2CCCCC2)nc(SCCCCCCC)n1 [S7S8 D4] | 7.0
13 | CCCCCCCCSc1nc(NCCN2CCN(C)CC2)nc(SCCCCCCC)n1 [S7S8 D5] | 11.2
14 | CCCCCCCCSc1nc(NCCCN(C)C)nc(SCCCCCCC)n1 [S7S8 D6] | 3.6
15 | CCCCCCCCSc1nc(NCCN(CC)CC)nc(SCCCCCCC)n1 [S7S8 D7] | 5.8
16 | CCCCCCCCSc1nc(NCCCN2CCOCC2)nc(SCCCCCCC)n1 [S7S8 D8] | 3.7
17 | CCCCCCCCSc1nc(NCCCN2CCN(C)CC2)nc(SCCCCCCC)n1 [S7S8 D9] | 10.2
18 | CCCCCCCCSc1nc(NCC2CCN(C)CC2)nc(SCCCCCCC)n1 [S7S8 D10] | 0.0
19 | CCCCCCCCCSc1nc(NCCN(C)C)nc(SCCCCCCC)n1 [S7S9 D1] | 10.8
20 | CCCCCCCCCSc1nc(NCCN2CCOCC2)nc(SCCCCCCC)n1 [S7S9 D2] | 28.8
21 | CCCCCCCCCSc1nc(NCCN2CCCC2)nc(SCCCCCCC)n1 [S7S9 D3] | 21.5
22 | CCCCCCCCCSc1nc(NCCN2CCCCC2)nc(SCCCCCCC)n1 [S7S9 D4] | 15.1
23 | CCCCCCCCCSc1nc(NCCN2CCN(C)CC2)nc(SCCCCCCC)n1 [S7S9 D5] | 12.5
24 | CCCCCCCCCSc1nc(NCCCN(C)C)nc(SCCCCCCC)n1 [S7S9 D6] | 3.4

Row | Compound | Absolute DNA transfection efficiency in HEK293 cells [%]
25 | CCCCCCCCCSc1nc(NCCN(CC)CC)nc(SCCCCCCC)n1 [S7S9 D7] | 14.5
26 | CCCCCCCCCSc1nc(NCCCN2CCOCC2)nc(SCCCCCCC)n1 [S7S9 D8] | 12.2
27 | CCCCCCCCCSc1nc(NCCCN2CCN(C)CC2)nc(SCCCCCCC)n1 [S7S9 D9] | 17.1
28 | CCCCCCCCCSc1nc(NCC2CCN(C)CC2)nc(SCCCCCCC)n1 [S7S9 D10] | 16.3
29 | CCCCCCCCCCSc1nc(NCCN(C)C)nc(SCCCCCCC)n1 [S7S10 D1] | 21.8
30 | CCCCCCCCCCSc1nc(NCCN2CCOCC2)nc(SCCCCCCC)n1 [S7S10 D2] | 23.6
31 | CCCCCCCCCCSc1nc(NCCN2CCCC2)nc(SCCCCCCC)n1 [S7S10 D3] | 19.4
32 | CCCCCCCCCCSc1nc(NCCN2CCCCC2)nc(SCCCCCCC)n1 [S7S10 D4] | 8.1
33 | CCCCCCCCCCSc1nc(NCCN2CCN(C)CC2)nc(SCCCCCCC)n1 [S7S10 D5] | 10.6
34 | CCCCCCCCCCSc1nc(NCCCN(C)C)nc(SCCCCCCC)n1 [S7S10 D6] | 4.7
35 | CCCCCCCCCCSc1nc(NCCN(CC)CC)nc(SCCCCCCC)n1 [S7S10 D7] | 20.2
36 | CCCCCCCCCCSc1nc(NCCCN2CCOCC2)nc(SCCCCCCC)n1 [S7S10 D8] | 18.0
37 | CCCCCCCCCCSc1nc(NCCCN2CCN(C)CC2)nc(SCCCCCCC)n1 [S7S10 D9] | 23.9
38 | CCCCCCCCCCSc1nc(NCC2CCN(C)CC2)nc(SCCCCCCC)n1 [S7S10 D10] | 25.2
39 | CCCCCCCCCCCSc1nc(NCCN(C)C)nc(SCCCCCCC)n1 [S7S11 D1] | 10.8
40 | CCCCCCCCCCCSc1nc(NCCN2CCOCC2)nc(SCCCCCCC)n1 [S7S11 D2] | 27.3
41 | CCCCCCCCCCCSc1nc(NCCN2CCCC2)nc(SCCCCCCC)n1 [S7S11 D3] | 9.7
42 | CCCCCCCCCCCSc1nc(NCCN2CCCCC2)nc(SCCCCCCC)n1 [S7S11 D4] | 14.2
43 | CCCCCCCCCCCSc1nc(NCCN2CCN(C)CC2)nc(SCCCCCCC)n1 [S7S11 D5] | 32.4
44 | CCCCCCCCCCCSc1nc(NCCCN(C)C)nc(SCCCCCCC)n1 [S7S11 D6] | 28.7
45 | CCCCCCCCCCCSc1nc(NCCN(CC)CC)nc(SCCCCCCC)n1 [S7S11 D7] | 10.4
46 | CCCCCCCCCCCSc1nc(NCCCN2CCOCC2)nc(SCCCCCCC)n1 [S7S11 D8] | 11.1
47 | CCCCCCCCCCCSc1nc(NCCCN2CCN(C)CC2)nc(SCCCCCCC)n1 [S7S11 D9] | 25.9
48 | CCCCCCCCCCCSc1nc(NCC2CCN(C)CC2)nc(SCCCCCCC)n1 [S7S11 D10] | 39.1

Row | Compound | Absolute DNA transfection efficiency in HEK293 cells [%]
49 | CCCCCCCCCCCCSc1nc(NCCN(C)C)nc(SCCCCCCC)n1 [S7S12 D1] | 8.2
50 | CCCCCCCCCCCCSc1nc(NCCN2CCOCC2)nc(SCCCCCCC)n1 [S7S12 D2] | 18.0
51 | CCCCCCCCCCCCSc1nc(NCCN2CCCC2)nc(SCCCCCCC)n1 [S7S12 D3] | 9.9
52 | CCCCCCCCCCCCSc1nc(NCCN2CCCCC2)nc(SCCCCCCC)n1 [S7S12 D4] | 9.5
53 | CCCCCCCCCCCCSc1nc(NCCN2CCN(C)CC2)nc(SCCCCCCC)n1 [S7S12 D5] | 9.6
54 | CCCCCCCCCCCCSc1nc(NCCCN(C)C)nc(SCCCCCCC)n1 [S7S12 D6] | 11.7
55 | CCCCCCCCCCCCSc1nc(NCCN(CC)CC)nc(SCCCCCCC)n1 [S7S12 D7] | 7.1
56 | CCCCCCCCCCCCSc1nc(NCCCN2CCOCC2)nc(SCCCCCCC)n1 [S7S12 D8] | 10.9
57 | CCCCCCCCCCCCSc1nc(NCCCN2CCN(C)CC2)nc(SCCCCCCC)n1 [S7S12 D9] | 4.8
58 | CCCCCCCCCCCCSc1nc(NCC2CCN(C)CC2)nc(SCCCCCCC)n1 [S7S12 D10] | 21.3
59 | CCCCCCCCCCCCCCSc1nc(NCCN(C)C)nc(SCCCCCCC)n1 [S7S14 D1] | 7.7
60 | CCCCCCCCCCCCCCSc1nc(NCCN2CCOCC2)nc(SCCCCCCC)n1 [S7S14 D2] | 15.9
61 | CCCCCCCCCCCCCCSc1nc(NCCN2CCCC2)nc(SCCCCCCC)n1 [S7S14 D3] | 8.4
62 | CCCCCCCCCCCCCCSc1nc(NCCN2CCCCC2)nc(SCCCCCCC)n1 [S7S14 D4] | 9.1
63 | CCCCCCCCCCCCCCSc1nc(NCCN2CCN(C)CC2)nc(SCCCCCCC)n1 [S7S14 D5] | 10.7
64 | CCCCCCCCCCCCCCSc1nc(NCCCN(C)C)nc(SCCCCCCC)n1 [S7S14 D6] | 4.4
65 | CCCCCCCCCCCCCCSc1nc(NCCN(CC)CC)nc(SCCCCCCC)n1 [S7S14 D7] | 4.0
66 | CCCCCCCCCCCCCCSc1nc(NCCCN2CCOCC2)nc(SCCCCCCC)n1 [S7S14 D8] | 11.0
67 | CCCCCCCCCCCCCCSc1nc(NCCCN2CCN(C)CC2)nc(SCCCCCCC)n1 [S7S14 D9] | 3.8
68 | CCCCCCCCCCCCCCSc1nc(NCC2CCN(C)CC2)nc(SCCCCCCC)n1 [S7S14 D10] | 26.7
69 | CCCCCCCCCCCCCCCSc1nc(NCCN(C)C)nc(SCCCCCCC)n1 [S7S15 D1] | 9.4
70 | CCCCCCCCCCCCCCCSc1nc(NCCN2CCOCC2)nc(SCCCCCCC)n1 [S7S15 D2] | 24.0
